Reference: patent publication US8501936B2 (priority 2009, dated 2013)

What was measured:
[1] = biological target: human JAK2 (Homo sapiens (Human), UniProt O60674); conditions: read-out: JAK2 IC50
[2] = biological target: human FAK (Homo sapiens (Human), UniProt Q05397); conditions: read-out: FAK IC50
Sequence of human FAK (Q05397 whole entry): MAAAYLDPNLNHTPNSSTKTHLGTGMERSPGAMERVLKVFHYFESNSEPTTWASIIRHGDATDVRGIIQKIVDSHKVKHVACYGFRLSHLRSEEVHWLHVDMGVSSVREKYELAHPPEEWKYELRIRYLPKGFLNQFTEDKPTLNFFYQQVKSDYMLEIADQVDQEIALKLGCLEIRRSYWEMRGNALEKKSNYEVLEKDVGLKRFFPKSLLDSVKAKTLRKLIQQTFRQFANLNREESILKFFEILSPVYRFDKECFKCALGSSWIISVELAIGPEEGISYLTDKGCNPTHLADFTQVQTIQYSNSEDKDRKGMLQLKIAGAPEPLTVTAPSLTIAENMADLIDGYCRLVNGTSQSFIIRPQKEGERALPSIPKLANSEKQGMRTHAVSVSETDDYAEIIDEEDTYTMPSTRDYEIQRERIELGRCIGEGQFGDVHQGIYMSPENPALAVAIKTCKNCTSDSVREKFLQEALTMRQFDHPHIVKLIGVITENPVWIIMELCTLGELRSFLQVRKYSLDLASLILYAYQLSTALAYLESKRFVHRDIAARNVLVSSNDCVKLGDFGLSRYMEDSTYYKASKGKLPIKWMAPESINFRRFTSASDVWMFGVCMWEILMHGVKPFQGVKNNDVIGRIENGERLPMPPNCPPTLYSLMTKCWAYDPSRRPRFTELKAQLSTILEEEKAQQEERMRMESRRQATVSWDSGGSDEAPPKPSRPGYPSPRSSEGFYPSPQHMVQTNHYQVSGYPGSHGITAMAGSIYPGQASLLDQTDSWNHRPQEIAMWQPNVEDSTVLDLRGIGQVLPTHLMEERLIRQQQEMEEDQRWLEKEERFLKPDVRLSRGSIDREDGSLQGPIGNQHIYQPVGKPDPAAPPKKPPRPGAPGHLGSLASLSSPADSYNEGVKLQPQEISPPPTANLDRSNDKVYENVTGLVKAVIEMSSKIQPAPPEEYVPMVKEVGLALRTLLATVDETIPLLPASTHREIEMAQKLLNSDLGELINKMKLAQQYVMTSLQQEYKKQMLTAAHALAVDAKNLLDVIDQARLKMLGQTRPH

Sequence of human JAK2 (O60674 815-1132): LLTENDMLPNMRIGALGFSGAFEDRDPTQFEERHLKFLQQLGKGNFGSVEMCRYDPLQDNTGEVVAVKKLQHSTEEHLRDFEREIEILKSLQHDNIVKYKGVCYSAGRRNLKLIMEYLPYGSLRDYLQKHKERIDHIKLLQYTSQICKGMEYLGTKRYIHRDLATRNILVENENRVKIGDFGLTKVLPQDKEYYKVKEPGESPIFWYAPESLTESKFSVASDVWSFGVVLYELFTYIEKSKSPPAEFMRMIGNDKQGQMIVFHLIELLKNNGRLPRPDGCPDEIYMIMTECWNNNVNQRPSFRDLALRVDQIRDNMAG

## CN1CCC(c2ccc(Nc3nc4c(Nc5ccccc5CN(C)S(C)(=O)=O)cccn4n3)cc2)CC1 [Example 174, N-Methyl-N-(2-{2-[4-(1-methyl-piperidin-4-yl)-phenylamino]-[1,2,4]triazolo[1,5-a]pyridin-8-ylamino}-benzyl)-methanesulfonamide]
[1]
  IC50: 0.111 µM
[2]
  IC50: 10 µM

## CN1CCN(c2ccc(Nc3nc4c(-c5cccc(CN(C)S(C)(=O)=O)c5)cccn4n3)cc2)CC1 [Example 175, N-Methyl-N-(3-{2-[4-(4-methyl-piperazin-1-yl)-phenylamino]-[1,2,4]triazolo[1,5-a]pyridin-8-yl}-benzyl)-methanesulfonamide]
[1]
  IC50: 0.00795 µM
[2]
  IC50: 3 µM

## CN1CCN(c2cccc(Nc3nc4c(-c5cccc(CN(C)S(C)(=O)=O)c5)cccn4n3)c2)CC1 [Example 176, N-Methyl-N-(3-{2-[3-(4-methyl-piperazin-1-yl)-phenylamino]-[1,2,4]triazolo[1,5-a]pyridin-8-yl}-benzyl)-methanesulfonamide]
[1]
  IC50: 0.00594 µM
[2]
  IC50: 3 µM

## CN(Cc1cccc(-c2cccn3nc(Nc4ccc(OCCN5CCCC5)cc4)nc23)c1)S(C)(=O)=O [Example 177, N-Methyl-N-(3-{2-[4-(2-pyrrolidin-1-yl-ethoxy)-phenylamino]-[1,2,4]triazolo[1,5-a]pyridin-8-yl}-benzyl)-methanesulfonamide]
[1]
  IC50: 0.00734 µM
[2]
  IC50: 3 µM

## CC(C)(C)OC(=O)N1CCN(c2cccc(Nc3nc4c(-c5ccc(S(C)(=O)=O)cc5)cccn4n3)c2)CC1 [Example 179, 4-{3-[8-(4-Methanesulfonyl-phenyl)-[1,2,4]triazolo[1,5-a]pyridin-2-ylamino]-phenyl}-piperazine-1-carboxylic acid tert-butyl ester]
[1]
  IC50: 0.00372 µM
[2]
  IC50: 10 µM

## CS(=O)(=O)c1ccc(-c2cccn3nc(Nc4cccc(N5CCNCC5)c4)nc23)cc1 [Example 181, [8-(4-Methanesulfonyl-phenyl)-[1,2,4]triazolo[1,5-a]pyridin-2-yl]-(3-piperazin-1-yl-phenyl)-amine]
[1]
  IC50: 0.00097 µM
[2]
  IC50: 1.13 µM

## CS(=O)(=O)c1ccc(-c2cccn3nc(Nc4cccc(N5CCN(CC(N)=O)CC5)c4)nc23)cc1 [Example 183, 2-(4-{3-[8-(4-Methanesulfonyl-phenyl)-[1,2,4]triazolo[1,5-a]pyridin-2-ylamino]-phenyl}-piperazin-1-yl)-acetamide]
[1]
  IC50: 0.00065 µM
[2]
  IC50: 6.5 µM

## CS(=O)(=O)c1ccc(-c2cccn3nc(Nc4cccc(C5CCN(CC(N)=O)CC5)c4)nc23)cc1 [Example 184, 2-(4-{3-[8-(4-Methanesulfonyl-phenyl)-[1,2,4]triazolo[1,5-a]pyridin-2-ylamino]-phenyl}-piperidin-1-yl)-acetamide]
[1]
  IC50: 0.00041 µM
[2]
  IC50: 0.384 µM

## CN1CCN(c2ccc(Nc3nc4c(N(C)Cc5ccccc5N(C)S(C)(=O)=O)cccn4n3)cc2)CC1 [Example 185, N-Methyl-N-{2-[(methyl-{2-[4-(4-methyl-piperazin-1-yl)-phenylamino]-[1,2,4]triazolo[1,5-a]pyridin-8-yl}-amino)-methyl]-phenyl}-methanesulfonamide]
[1]
  IC50: 0.0511 µM
[2]
  IC50: 0.0625 µM

## CS(=O)(=O)c1ccc(-c2cccn3nc(Nc4cccc(N5CCN(CCCF)CC5)c4)nc23)cc1 [Example 187, {3-[4-(3-Fluoro-propyl)-piperazin-1-yl]-phenyl}-[8-(4-methanesulfonyl-phenyl)-[1,2,4]triazolo[1,5-a]pyridin-2-yl]-amine]
[1]
  IC50: 0.00493 µM
[2]
  IC50: 2.44 µM

## CN1CCN(c2ccc(Nc3nc4c(C#Cc5ccccc5N(C)S(C)(=O)=O)cccn4n3)cc2)CC1 [Example 189, N-Methyl-N-(2-{2-[4-(4-methyl-piperazin-1-yl)-phenylamino]-[1,2,4]triazolo[1,5-a]pyridin-8-ylethynyl}-phenyl)-methanesulfonamide]
[1]
  IC50: 0.00261 µM
[2]
  IC50: 0.522 µM

## CN1CCN(c2cccc(Nc3nc4c(C#Cc5ccccc5N(C)S(C)(=O)=O)cccn4n3)c2)CC1 [Example 192, N-Methyl-N-(2-{2-[3-(4-methyl-piperazin-1-yl)-phenylamino]-[1,2,4]triazolo[1,5-a]pyridin-8-ylethynyl}-phenyl)-methanesulfonamide]
[1]
  IC50: 0.0239 µM
[2]
  IC50: 2.42 µM

## CN1Cc2ccc(Nc3nc4c(C#Cc5ccccc5N(C)S(C)(=O)=O)cccn4n3)cc2C1 [Example 193, N-Methyl-N-{2-[2-(2-methyl-2,3-dihydro-1H-isoindol-5-ylamino)-[1,2,4]triazolo[1,5-a]pyridin-8-ylethynyl]-phenyl}-methanesulfonamide]
[1]
  IC50: 0.0115 µM
[2]
  IC50: 3 µM

## CN1CCN(c2ccc(Nc3nc4c(CCc5ccccc5N(C)S(C)(=O)=O)cccn4n3)cc2)CC1 [Example 194, N-Methyl-N-[2-(2-{2-[4-(4-methyl-piperazin-1-yl)-phenylamino]-[1,2,4]triazolo[1,5-a]pyridin-8-yl}-ethyl)-phenyl]-methanesulfonamide]
[1]
  IC50: 0.218 µM
[2]
  IC50: 0.0417 µM

## CN1CCN(c2ccc(Nc3nc4c(OCc5ccccc5N(C)S(C)(=O)=O)cccn4n3)cc2)CC1 [Example 195, N-Methyl-N-(2-{2-[4-(4-methyl-piperazin-1-yl)-phenylamino]-[1,2,4]triazolo[1,5-a]pyridin-8-yloxymethyl}-phenyl)-methanesulfonamide]
[1]
  IC50: 0.015 µM
[2]
  IC50: 0.0218 µM

## CN1CCN(c2ccc(Nc3nc4c(/C=C/c5ccccc5N(C)S(C)(=O)=O)cccn4n3)cc2)CC1 [Example 196, N-Methyl-N-[2-((E)-2-{2-[4-(4-methyl-piperazin-1-yl)-phenylamino]-[1,2,4]triazolo[1,5-a]pyridin-8-yl}-vinyl)-phenyl]-methanesulfonamide]
[1]
  IC50: 0.0321 µM
[2]
  IC50: 0.999 µM

## CC(Nc1cccn2nc(Nc3ccc(N4CCN(C)CC4)cc3)nc12)c1ccccc1N(C)S(C)(=O)=O (centres unmarked) [Example 197, N-Methyl-N-[2-(1-{2-[4-(4-methyl-piperazin-1-yl)-phenylamino]-[1,2,4]triazolo[1,5-a]pyridin-8-ylamino}-ethyl)-phenyl]-methanesulfonamide]
[1]
  IC50: 0.418 µM
[2]
  IC50: 0.999 µM

## CN1CCN(c2cccc(Nc3nc4c(-c5ccc(P(C)(C)=O)cc5)cccn4n3)c2)CC1 [Example 198, {8-[4-(Dimethyl-phosphinoyl)-phenyl]-[1,2,4]triazolo[1,5-a]pyridin-2-yl}-[3-(4-methyl-piperazin-1-yl)-phenyl]-amine]
[1]
  IC50: 0.00173 µM
[2]
  IC50: 10 µM

## CP(C)(=O)c1ccc(-c2cccn3nc(N(CCS(C)(=O)=O)c4cccc(C5CCN(CCS(C)(=O)=O)CC5)c4)nc23)cc1 [Example 199, {8-[4-(Dimethyl-phosphinoyl)-phenyl]-[1,2,4]triazolo[1,5-a]pyridin-2-yl}-(2-methanesulfonyl-ethyl)-{3-[1-(2-methanesulfonyl-ethyl)-piperidin-4-yl]-phenyl}-amine]
[1]
  IC50: 0.0958 µM
[2]
  IC50: 10 µM

## CN(c1ccccc1CNc1cccn2nc(Nc3ccc4c(c3)CCC(N3CCOCC3)CC4)nc12)S(C)(=O)=O (centres unmarked) [Example 200, N-Methyl-N-(2-{[2-(7-morpholin-4-yl-6,7,8,9-tetrahydro-5H-benzocyclohepten-2-ylamino)-[1,2,4]triazolo[1,5-a]pyridin-8-ylamino]-methyl}-phenyl)-methanesulfonamide]
[1]
  IC50: 0.134 µM
[2]
  IC50: 0.0182 µM

## CN(c1ccccc1CNc1cccn2nc(Nc3ccc4cnccc4c3)nc12)S(C)(=O)=O [Example 201, N-(2-{[2-(Isoquinolin-6-ylamino)-[1,2,4]triazolo[1,5-a]pyridin-8-ylamino]-methyl}-phenyl)-N-methyl-methanesulfonamide]
[1]
  IC50: 0.116 µM
[2]
  IC50: 0.167 µM

## CN(c1ccccc1CNc1cccn2nc(Nc3ccccc3)nc12)S(C)(=O)=O [Example 202, N-Methyl-N-{2-[(2-phenylamino-[1,2,4]triazolo[1,5-a]pyridin-8-ylamino)-methyl]-phenyl}-methanesulfonamide]
[1]
  IC50: 0.571 µM
[2]
  IC50: 0.189 µM

## CP(C)(=O)c1ccc(-c2cccn3nc(Nc4cccc(C5CCN(CCS(C)(=O)=O)CC5)c4)nc23)cc1 [Example 203, {8-[4-(Dimethyl-phosphinoyl)-phenyl]-[1,2,4]triazolo[1,5-a]pyridin-2-yl}-{3-[1-(2-methanesulfonyl-ethyl)-piperidin-4-yl]-phenyl}-amine]
[1]
  IC50: 0.166 µM
[2]
  IC50: 10 µM

## CN1CCN(c2cccc(Nc3nc4c(-c5ccc(S(C)(=O)=O)cc5)cccn4n3)c2)C(=O)C1 [Example 204, 1-{3-[8-(4-Methanesulfonyl-phenyl)-[1,2,4]triazolo[1,5-a]pyridin-2-ylamino]-phenyl}-4-methyl-piperazin-2-one]
[1]
  IC50: 0.00163 µM
[2]
  IC50: 10 µM

## CN1CCN(c2cccc(Nc3nc4c(-c5ccc(N6CCC(N7CCN(C)CC7)CC6)cc5)cccn4n3)c2)CC1 [Example 206, [3-(4-Methyl-piperazin-1-yl)-phenyl]-(8-{4-[4-(4-methyl-piperazin-1-yl)-piperidin-1-yl]-phenyl}-[1,2,4]triazolo[1,5-a]pyridin-2-yl)-amine]
[1]
  IC50: 0.045 µM
[2]
  IC50: 3 µM

## CN1CCN(c2cccc(Nc3nc4c(-c5ccc(P(C)(C)=O)cc5)cccn4n3)c2)C(=O)C1 [Example 207, 1-(3-{8-[4-(Dimethyl-phosphinoyl)-phenyl]-[1,2,4]triazolo[1,5-a]pyridin-2-ylamino}-phenyl)-4-methyl-piperazin-2-one]
[1]
  IC50: 0.0105 µM
[2]
  IC50: 10 µM

## CCN1CCN(c2cccc(Nc3nc4c(-c5ccc(P(C)(C)=O)cc5)cccn4n3)c2)C(=O)C1 [Example 208, 1-(3-{8-[4-(Dimethyl-phosphinoyl)-phenyl]-[1,2,4]triazolo[1,5-a]pyridin-2-ylamino}-phenyl)-4-ethyl-piperazin-2-one]
[1]
  IC50: 0.0132 µM
[2]
  IC50: 10 µM

## CCn1cc(Nc2nc3c(-c4ccc(S(C)(=O)=O)cc4)cccn3n2)cn1 [Example 209, (1-Ethyl-1H-pyrazol-4-yl)-[8-(4-methanesulfonyl-phenyl)-[1,2,4]triazolo[1,5-a]pyridin-2-yl]-amine]
[1]
  IC50: 0.00188 µM
[2]
  IC50: 10 µM
